Results reported in paper PMC7857637, “The three NADH dehydrogenases of Pseudomonas aeruginosa: Their roles in energy metabolism and links to virulence” (PLoS ONE, 2021).

Molecular target: T1, NQR complex (pHERD28C-NQR) (Pseudomonas aeruginosa, UniProt Q9HZK7+Q9HZK8)
T1 construct: gene nqrB; complete nqr operon on pHERD28C plasmid, C-terminal His tag on NqrF, expressed in P. aeruginosa, partially purified on Ni-NTA; with Na(+)-translocating NADH-quinone reductase subunit A; Na(+)-translocating NADH-quinone reductase subunit D; Na(+)-translocating NADH-quinone reductase subunit E; Na(+)-translocating NADH-quinone reductase subunit F
T1 sequence (Q9HZK7 whole entry): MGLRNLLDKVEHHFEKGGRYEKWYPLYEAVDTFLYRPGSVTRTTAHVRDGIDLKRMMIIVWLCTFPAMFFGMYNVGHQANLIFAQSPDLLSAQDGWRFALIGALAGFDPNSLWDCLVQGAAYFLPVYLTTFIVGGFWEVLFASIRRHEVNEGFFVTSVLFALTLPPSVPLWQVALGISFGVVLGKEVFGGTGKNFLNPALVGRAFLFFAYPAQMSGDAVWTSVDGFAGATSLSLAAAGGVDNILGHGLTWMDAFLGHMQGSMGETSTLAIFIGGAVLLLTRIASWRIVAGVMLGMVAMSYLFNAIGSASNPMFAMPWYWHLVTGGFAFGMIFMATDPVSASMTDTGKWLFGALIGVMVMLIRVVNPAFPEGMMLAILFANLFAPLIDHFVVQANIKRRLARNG
T1 sequence (Q9HZK8 whole entry): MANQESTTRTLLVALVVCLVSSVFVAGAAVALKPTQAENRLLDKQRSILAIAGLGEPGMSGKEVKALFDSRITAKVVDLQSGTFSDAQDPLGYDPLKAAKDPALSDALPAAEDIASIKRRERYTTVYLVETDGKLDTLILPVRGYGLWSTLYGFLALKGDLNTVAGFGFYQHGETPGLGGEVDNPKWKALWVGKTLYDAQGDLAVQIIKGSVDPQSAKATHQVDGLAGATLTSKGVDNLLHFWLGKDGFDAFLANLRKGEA
T1 sequence (Q9HZL1 whole entry partner): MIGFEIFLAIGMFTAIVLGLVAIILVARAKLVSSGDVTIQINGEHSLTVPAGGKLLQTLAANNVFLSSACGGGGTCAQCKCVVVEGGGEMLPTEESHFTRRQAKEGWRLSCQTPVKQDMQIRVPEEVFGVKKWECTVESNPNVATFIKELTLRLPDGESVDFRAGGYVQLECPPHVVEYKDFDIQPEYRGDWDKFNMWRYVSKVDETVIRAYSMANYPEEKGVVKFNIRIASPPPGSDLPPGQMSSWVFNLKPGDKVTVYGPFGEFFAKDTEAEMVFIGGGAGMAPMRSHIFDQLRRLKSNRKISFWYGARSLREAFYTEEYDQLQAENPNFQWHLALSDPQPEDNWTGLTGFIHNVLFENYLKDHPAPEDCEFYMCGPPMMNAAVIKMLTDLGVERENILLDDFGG
T1 sequence (Q9HZK6 whole entry partner): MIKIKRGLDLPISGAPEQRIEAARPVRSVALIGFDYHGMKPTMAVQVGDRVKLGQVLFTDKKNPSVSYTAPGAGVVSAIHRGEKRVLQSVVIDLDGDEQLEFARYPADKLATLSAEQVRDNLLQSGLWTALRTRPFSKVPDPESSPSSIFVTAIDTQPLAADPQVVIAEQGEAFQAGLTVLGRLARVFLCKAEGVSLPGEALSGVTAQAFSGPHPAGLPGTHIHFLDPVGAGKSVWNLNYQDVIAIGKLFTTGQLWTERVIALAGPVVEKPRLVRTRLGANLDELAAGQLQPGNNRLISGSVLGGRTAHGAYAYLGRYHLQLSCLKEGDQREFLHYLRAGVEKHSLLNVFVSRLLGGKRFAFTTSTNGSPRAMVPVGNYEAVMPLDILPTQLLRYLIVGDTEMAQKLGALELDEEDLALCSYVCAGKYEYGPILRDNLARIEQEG
T1 sequence (Q9HZK9 whole entry partner): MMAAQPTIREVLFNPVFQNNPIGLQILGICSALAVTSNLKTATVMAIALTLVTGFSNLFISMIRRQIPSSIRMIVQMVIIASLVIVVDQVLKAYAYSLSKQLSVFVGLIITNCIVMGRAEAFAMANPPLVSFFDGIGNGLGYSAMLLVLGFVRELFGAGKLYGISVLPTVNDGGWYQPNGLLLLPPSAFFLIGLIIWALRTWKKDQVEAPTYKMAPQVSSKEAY
T1 sequence (Q9HZL0 whole entry partner): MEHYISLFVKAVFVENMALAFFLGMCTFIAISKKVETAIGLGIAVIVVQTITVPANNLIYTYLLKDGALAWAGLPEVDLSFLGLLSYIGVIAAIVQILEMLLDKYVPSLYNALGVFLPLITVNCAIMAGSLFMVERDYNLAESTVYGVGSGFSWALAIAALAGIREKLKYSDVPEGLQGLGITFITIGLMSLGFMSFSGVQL
Assay: in-gel flavin fluorescence of the partially purified complex (SDS gel under UV)
Type: binding
Conditions: covalent (retained on SDS gel); bands of subunits NqrB and NqrC

For Cc1cc2nc3c(=O)[nH]c(=O)nc-3n(C[C@H](O)[C@H](O)[C@H](O)COP(=O)(O)O)c2cc1C [FMN], the “in-gel flavin fluorescence of the partially purified complex (SDS gel under UV)” value was “two fluorescent bands characteristic of the FMN cofactors of the NqrB and NqrC subunits”.
